What all share (type): in vivo, Gossypium hirsutum
Assay [1] deals with mutant pagoda1. The assay is described as follows: Response of mutant pagoda1 to brassinosteroids (hypocotyledonary axis length). To be noted: 500 nM in liquid medium, cotyledon stage to five leaf stage, vs 0.2% ethanol control, average of 20 plants. On the procedure: (§1) The mutant pagoda1 and the cotton variety“CRI 24” were identified as below, respectively: • Test Group: cultivating cotton plants of the cotyledon stage in a liquid medium containing 500 nM brassinosteroids (Sigma) to the five leaf stage, to measure the length of its hypocotyledonary axis;
(§2) Control Group: the same as the Test Group, except that brassinosteroids was replaced with an equal volume of an aqueous solution of 0.2% ethanol.
(§3) The length measurements of hypocotyledonary axis of the processed plants from respective groups (an averaged measurement of 20 plants for each group) are shown in FIG. 2. […] For the cotton variety “CRI 24”, after the treatment with brassinosteroids, the hypocotyledonary axis was prolonged by only 16%.

Another assay deals with cotton variety "CRI 24". The assay is described as follows: Response of cotton variety CRI 24 to brassinosteroids (hypocotyledonary axis length). To be noted: 500 nM in liquid medium, cotyledon stage to five leaf stage, vs 0.2% ethanol control, average of 20 plants. On the procedure:
as §1, §2, §3

Assay [2] deals with mutant pagoda1. Nature of the assay: Shaping of cotton by local application of brassinosteroids. From the text:
Since brassinosteroids cannot be delivered for a long distance in a plant, a local application thereof may promote the growth of the applied part, without an impact on the far part.

Turning to brassinosteroids, the entries for the “hypocotyledonary axis prolonged after treatment with brassinosteroids” value in the assay on mutant pagoda1 [1] and in the assay on cotton variety "CRI 24" were 270% and 16%, respectively. The “extension of the lateral branch after application to the lateral branch” value in the assay on mutant pagoda1 [2] (500 nM applied to a lateral branch of a seedling of mutant pagoda1 (FIG. 4B)) is given as “significantly extended”. Further, the “growth of the top of the seedling after application to the top” value in the assay with mutant pagoda1 [2] (500 nM applied to the top of a seedling of mutant pagoda1 (FIG. 4A)) was “significantly promoting the growth of the top of the seeding”.

The values are drawn from patent US10041085B2, “Plant type related protein, and coding gene and application thereof” (Cotton Research Institute, Chinese Academy of Agricultural …, priority 2013, dated 2018).
